Like-named read-outs stand apart in the source and are kept apart here.
Tests used:
[1] = tested on: patients with non-ST elevation acute coronary syndrome; assay: MERLIN-TIMI 36: adverse events; assay type: in vivo, human; settings: n = 3268
[2] = tested on: patients with non-ST elevation acute coronary syndrome; assay: MERLIN-TIMI 36: ischemia on Holter / continuous ECG (CECG) monitoring; assay type: in vivo, human; settings: ranolazine vs placebo
Method: At randomization, 6355 patients (99%) had 3-lead CECG monitoring initiated (median duration 6.9 days). The primary CECG endpoint was the rate of ST dep≧1 mm from baseline lasting ≧1 minute with heart rate at onset <100 bpm. Exploratory analyses using ST dep≧0.5 mm were also performed.

[3] = tested on: patients with non-ST elevation acute coronary syndrome; assay: MERLIN-TIMI 36: Seattle Angina Questionnaire scores at 4 months; assay type: in vivo, human; settings: ITT, N 2558
Text: The MERLIN-TIMI 36 secondary efficacy endpoint (ITT) Seattle Angina Questionnaire scores at 4 months for anginal frequency scale are shown in Table 16 below, and scores for physical limitation scale are shown in Table 17 below.

[4] = tested on: patients with non-ST elevation acute coronary syndrome; assay: MERLIN-TIMI 36: HbA1c and hyperglycemia; assay type: in vivo, human
Text: The proportion of patients in the MERLIN-TIMI 36 study with HbA1C≧7% is shown in Table 28 below (and see FIG. 15).
The proportion of patients with HbA1C≧7% (with diabetes or no diabetes) at various times during the MERLIN-TIMI 36 study is shown in Table 29 below (and FIG. 16).
HbA1c data are reported as least-square means. Patients categorized as “diabetic” had been diagnosed as diabetic before or at the time of randomization. Patients categorized as “no diabetes” had not been diagnosed as diabetic before or at the time of randomization. Some patients characterized as “no diabetes” may have been diagnosed as “diabetic” during the trial; however, these patients are still listed in the “no diabetes” category in FIG. 4B.

[5] = tested on: patients with non-ST elevation acute coronary syndrome
[6] = tested on: patients with non-ST elevation acute coronary syndrome; assay: MERLIN-TIMI 36: arrhythmias on 7 day continuous ECG (Holter) recording; assay type: in vivo, human
Method: The safety endpoint data for incidence of clinically significant arrhythmias during 7 day Holter monitoring from MERLIN-TIMI 36 is shown in Table 24 below.
Continuous ECG (Holter) recording was performed for the first 7 days after randomization. Because of the known prolongation of the QT interval with ranolazine, analyses of a prespecified set of arrhythmias were a major objective of the trial. All arrhythmias were evaluated in the TIMI ECG Core Laboratory by cardiologists blinded to treatment and outcomes.
Continuous ECG (cECG or Holter) recording was performed for the first 7 days after randomization. Prespecified arrhythmia analyses were evaluated by a core laboratory blinded to treatment and outcomes.

[7] = tested on: patients with non-ST elevation acute coronary syndrome; assay: MERLIN-TIMI 36: efficacy endpoints (CV death, MI, recurrent ischemia, failure of therapy); assay type: in vivo, human
Text: The MERLIN-TIMI 36 primary efficacy endpoint (ITT) time from randomization to first occurrence of cardiovascular death, myocardial infarction, or recurrent ischemia data is shown in Table 11 below (and FIGS. 4 and 5).
The MERLIN-TIMI 36 major secondary efficacy endpoint (ITT) time from randomization to first occurrence of cardiovascular death, myocardial infarction, or severe recurrent ischemia data is shown in Table 12 below (and FIGS. 6 and 7).
The secondary efficacy endpoint time from randomization to failure of therapy (cardiovascular death, […], recurrent ischemia, positive Holter for ischemia, New/Worsening heart failure, or early+ETT) data from MERLIN-TIMI 36 is shown in Table 14 below (and FIGS. 8 and 9).
The secondary efficacy endpoint (ITT) incidence at 30 days of cardiovascular death, myocardial infarction, severe recurrent ischemia, or positive Holter for ischemia data from MERLIN-TIMI 36 is shown in Table 15 below.
The data for time from randomization to first occurrence of cardiovascular death or myocardial infarction from MERLIN-TIMI 36 is shown in Table 20 below. For relative risk of CV death, MI, or recurrent ischemia by subgroup, see FIG. 10. For relative risk of CV death, MI, or severe recurrent ischemia by subgroup, see FIG. 11. For relative risks of failure of therapy by subgroup, see FIG. 12.

[8] = patients with DM treated with ranolazine
[9] = placebo vs ranolazine, cECG monitoring
[10] = ITT, n = 3279, major secondary efficacy endpoint
[11] = ITT, n = 3279, primary efficacy endpoint

COc1ccccc1OCC(O)CN1CCN(CC(=O)Nc2c(C)cccc2C)CC1 (racemic) [Ranolazine, (±)—N-(2,6-dimethylphenyl)-4-[2-hydroxy-3-(2-methoxyphenoxy)-propyl]-1-piperazineacetamide]
Adverse event: Angina pectoris (%) ([1]; AE summary > 4% incidence): (8%) | Adverse event: Angina unstable (%) ([1]; AE summary > 4% incidence): (10%) | Adverse event: Asthenia (%) ([1]; AE summary > 4% incidence): (5%) | Adverse event: Cardiac failure (%) ([1]; AE summary > 4% incidence): (5%) | Adverse event: Chest pain (%) ([1]; AE summary > 4% incidence): (11%) | Adverse event: Constipation (%) ([1]; AE summary > 4% incidence): (9%) | Adverse event: Dizziness (%) ([1]; AE summary > 4% incidence): (13%) | Adverse event: Fatigue (%) ([1]; AE summary > 4% incidence): (4%) | Adverse event: Headache (%) ([1]; AE summary > 4% incidence): (7%) | Adverse event: Hypotension (%) ([1]; AE summary > 4% incidence): (5%) | Adverse event: Nausea (%) ([1]; AE summary > 4% incidence): (9%) | Serious adverse event: ACS (%) ([1]; SAEs ≧ 1% incidence): (2%) | Serious adverse event: Acute MI (%) ([1]; SAEs ≧ 1% incidence): (3%) | Serious adverse event: Angina pectoris (%) ([1]; SAEs ≧ 1% incidence): (4%) | Serious adverse event: Angina unstable (%) ([1]; SAEs ≧ 1% incidence): (8%) | Serious adverse event: Atrial fibrillation (%) ([1]; SAEs ≧ 1% incidence): (1%) | Serious adverse event: Cardiac failure (%) ([1]; SAEs ≧ 1% incidence): (4%) | Serious adverse event: Cardiac failure congestive (%) ([1]; SAEs ≧ 1% incidence): (1%) | Serious adverse event: Chest pain (%) ([1]; SAEs ≧ 1% incidence): (2%) | Serious adverse event: MI (%) ([1]; SAEs ≧ 1% incidence): (4%) | Serious adverse event: Syncope (%) ([1]; SAEs ≧ 1% incidence): (1%) | Patients early prematurely withdrawn due to AEs (%) ([1]; Safety - All Patients Dosed): (13%) | Patients with AEs (%) ([1]; Safety - All Patients Dosed): (76%) | Patients with AEs leading to death (%) ([1]; Safety - All Patients Dosed): (5%) | Patients with serious AEs (SAEs) (%) ([1]; Safety - All Patients Dosed): (34%) | Patients with study drug-related AEs (%) ([1]; Safety - All Patients Dosed): (30%) | RR for primary CECG endpoint events ([2]; >72 hours after randomization): 0.86 | RR for CECG ischemic events ([2]; lower ischemic threshold of 0.5 mm): 0.91 | Seattle Angina Questionnaire, Anginal Frequency Scale: Median [3]: 100 | Patients with HbA1C ≧ 7% (%) ([4]; Baseline (In-Hospital visit prior to randomization), all patients dosed): 24% | Patients with HbA1C ≧ 7% (%) ([4]; Diabetes at enrollment, n = 1098, Baseline): 57% | Patients with HbA1C ≧ 7% (%) ([4]; Diabetes at enrollment, n = 1098, Final Visit): 42% | Patients with HbA1C ≧ 7% (%) ([4]; Diabetes at enrollment, n = 1098, Month 4): 41% | Patients with HbA1C ≧ 7% (%) ([4]; Diabetes at enrollment, n = 1098, Month 8): 44% | Patients with HbA1C ≧ 7% (%) ([4]; Diabetes at enrollment, n = 1098, Month 16): 48% | Patients with HbA1C ≧ 7% (%) ([4]; Final Visit, all patients dosed): 17% | Patients with HbA1C ≧ 7% (%) ([4]; Month 4, all patients dosed): 17% | Patients with HbA1C ≧ 7% (%) ([4]; Month 8, all patients dosed): 18% | Patients with HbA1C ≧ 7% (%) ([4]; Month 16, all patients dosed): 20% | Patients with HbA1C ≧ 7% (%) ([4]; No Diabetes at enrollment, n = 2170, Baseline): 6% | Patients with HbA1C ≧ 7% (%) ([4]; No Diabetes at enrollment, n = 2170, Final Visit): 6% | Patients with HbA1C ≧ 7% (%) ([4]; No Diabetes at enrollment, n = 2170, Month 4): 5% | Patients with HbA1C ≧ 7% (%) ([4]; No Diabetes at enrollment, n = 2170, Month 8): 6% | Patients with HbA1C ≧ 7% (%) ([4]; No Diabetes at enrollment, n = 2170, Month 16): 7% | HbA1c ([4]; at 4 months, 4306 patients with serial measurements, least-square means): 5.9% | HR for worsening of hyperglycemia ([4]; diabetic patients, ranolazine vs placebo): 0.63 | HbA1c after decline (declined to) [4, 8]: 6.8 | HbA1c before decline (declined from) [4, 8]: 7.2 | Patients achieving HbA1c<7% ([4]; patients with DM, at 4 months): 59% | HR for new fasting glucose >110 mg/dL or HbA1c≧6% ([4]; patients without DM, ranolazine vs placebo): 0.68 | Incidence (Kaplan-Meier estimate) of death from any cause ([5]; 30 days): 1.8% | Incidence (Kaplan-Meier estimate) of death or CV hospitalization ([5]; 30 days): 9.2% | Incidence (Kaplan-Meier estimate) of death from any cause ([5]; 60 days): 2.2% | Incidence (Kaplan-Meier estimate) of death or CV hospitalization ([5]; 60 days): 15.0% | Incidence (Kaplan-Meier estimate) of death from any cause ([5]; 180 days): 3.4% | Incidence (Kaplan-Meier estimate) of death from any cause ([5]; 360 days): 5.3% | Incidence (Kaplan-Meier estimate) of death from any cause ([5]; 540 days): 7.0% | Pts with events: death from any cause ([5]; All Patients Dosed, n = 3268): 172 | Pts with events: first occurrence of death or CV hospitalization ([5]; All Patients Dosed, n = 3268): 1037 | Endpoint-defining events: Death (%) ([5]; death or CV hospitalization endpoint, n = 3268): 10.7% | Endpoint-defining events: CV hospitalization (%) ([5]; human, in vivo): 89.3% | Symptomatic documented arrhythmias (% of patients) ([5]; human, in vivo): 3.0% | HR for total mortality ([5]; ranolazine vs placebo): 0.99 | Any Clinically Significant Arrhythmia during 7 Day Holter (%) ([6]; All Patients Dosed, n = 3268): 71.3% | Bradycardic episode during 7 Day Holter (%) ([6]; All Patients Dosed, n = 3268): 38.5% | New onset atrial fibrillation during 7 Day Holter (%) ([6]; All Patients Dosed, n = 3268): 1.7% | Supraventricular tachycardia during 7 Day Holter (%) ([6]; Any SVT >= 120 bpm, n = 3268): 43.2% | Ventricular tachycardia during 7 Day Holter (%) ([6]; Any VT >= 100 bpm >= 3 beats, n = 3268): 29.0% | Pause > 3 secs (%) ([6]; Holter, first 7 days, n = 3162): (3.1) % | VT >= 8 beats (<30 secs) (%) ([6]; Holter, first 7 days, n = 3162): (5.5) % | New-onset atrial fibrillation (% of patients) ([6]; cECG first 7 days, Example 9): 1.7% | Polymorphic VT >= 8 beats (%) ([6]; cECG monitoring): (1.2) % | Sustained VT (>=30 sec) (%) ([6]; cECG monitoring): (0.44) % | VT ≧ 8 beats (<30 sec) (%) ([6]; cECG monitoring): (5.3) % | VT ≧ 8 beats (<30 sec) (%) ([6]; cECG monitoring, listed as ranolazine): 5.3% | Polymorphic VT >= 8 beats: Δ (%) [6, 9]: −21% | Sustained VT (>=30 sec): Δ [6, 9]: 0 | VT ≧ 3 beats (≧100 b/m): Δ (%) [6, 9]: −17% | VT ≧ 4 beats (≧100 b/m): Δ (%) [6, 9]: −30% | VT ≧ 8 beats (<30 sec): Δ (%) [6, 9]: −37% | Incidence (Kaplan-Meier estimate) of CV death or MI ([7]; 30 days, ITT): 4.2% | Incidence (Kaplan-Meier estimate) of CV death, MI, or recurrent ischemia ([7]; 30 days, ITT): 7.7% | Incidence (Kaplan-Meier estimate) of CV death, MI, or severe recurrent ischemia ([7]; 30 days, ITT): 7.5% | Incidence (Kaplan-Meier estimate) of CV death or MI ([7]; 60 days, ITT): 5.3% | Incidence (Kaplan-Meier estimate) of CV death, MI, or recurrent ischemia ([7]; 60 days, ITT): 9.9% | Incidence (Kaplan-Meier estimate) of CV death, MI, or severe recurrent ischemia ([7]; 60 days, ITT): 9.4% | Endpoint-defining events: CV death (%) ([7]; ITT, n = 3279, CV death or MI endpoint): 30.5% | Pts with events: first occurrence of CV death or MI ([7]; ITT, n = 3279, additional efficacy endpoint): 338 | Endpoint-defining events: CV death (%) [7, 10]: 14.6% | Pts with events: first occurrence of CV death, MI, or severe recurrent ischemia [7, 10]: 602 | Endpoint-defining events: CV death (%) [7, 11]: 12.5% | Pts with events: first occurrence of CV death, MI, or recurrent ischemia [7, 11]: 695 | Pts with events: CV death, MI, severe RI, or positive Holter for ischemia (%) ([7]; incidence at 30 days, ITT, n = 3279): 23% | Primary endpoint occurred in (% of patients) ([7]; ranolazine group, Example 7): 21.8% | HR for cardiovascular death or MI ([7]; ranolazine vs placebo): 0.99 | HR for recurrent ischemia ([7]; ranolazine vs placebo): 0.87 | HR for the primary endpoint ([7]; ranolazine vs placebo): 0.92 | Relative risk (SE): CV death, MI, or severe recurrent ischemia ([7]; ranolazine vs placebo, ITT, major secondary efficacy endpoint): 0.982 (0.06) | HR for worsening angina ([7]; women, ranolazine vs placebo): 0.61

From patent US20080214556A1 (priority 2007, published 2008)
